One assay has as its system mice with heart failure. The assay is described as follows: MRI (FAIR) cerebral blood flow in heart failure mice. In kind it is in vivo, mouse. As to conditions: HF mice, forebrain cortical, 3 mg/kg daily for 2 days. From the text:
As described previously (10-12), we utilized a flow-sensitive alternating inversion recovery (FAIR) magnetic resonance imaging (MRI) technique (13) to evaluate cerebral blood flow (CBF). During imaging, mice were immobilized with 1.8% isoflurane delivered through a nose cone. To maintain body temperature, the MRI is equipped with embedded tubes that convect water from an external heater-pump. Respiration was monitored using a pneumatic pillow (SA Instruments, Stonybrook, USA); isoflurane levels were adjusted to maintain respiration at approximately 50 breaths/minute.
FAIR images were obtained using a 7 Tesla micro-MRI system (BioSpec 70/30 USR, Bruker BioSpin, Ettlingen, Germany), including the B-GA12 gradient insert, 72 mm inner diameter linear volume resonator for RF transmission, and anteriorly placed head coil for RF reception. […] FAIR images were evaluated by manual prescription (MIPAV, NIH, Bethesda, MD; http://mipav.cit.nih.gov) of sub-hemispheric regions-of-interest (ROIs), termed ‘global’, and local ROIs corresponding to cortical and sub-cortical parenchyma in forebrain sections; cortical and paraventricular parenchyma in middle sections; and cortical and midbrain parenchyma in hindbrain sections. […]

Assay [1] concerns mice with subarachnoid hemorrhage. The assay is described as follows: Modified Garcia neurological score in subarachnoid hemorrhage mice. In kind it is in vivo, mouse. As to conditions: SAH mice, 2 days post-SAH, maximum score 18, 3 mg/kg daily for 2 days. As to the method:
Neurological Function Assessment: Neurological function was assessed utilizing the modified Garcia score, as previously described (6). The neurological assessment consists of 6 domains: spontaneous activity, spontaneous movement of all 4 limbs, forepaw outstretching, climbing, body proprioception and response to vibrissae touch. Two blinded observers conducted the neurological assessment 2 days after SAH. The maximum score is 18, indicative of normal neurological function.

For another assay, the target named is CFTR (Mus musculus, UniProt P26361). Put plainly: Forskolin-stimulated iodide efflux in vascular smooth muscle cells. In kind it is cell-based. Details: mesenteric artery segments were isolated, cut into small pieces and digested with trypsin, collagenase and elastase; endogenous in cells; host or cells: primary mesenteric artery vascular smooth muscle cells. The conditions noted are these: primary vascular smooth muscle cells; 48 h TNF 10 ng/ml + C18 6 μmol/L for last 24 h. The method, then: Procedures for isolating and culturing mesenteric artery smooth muscle cells were carried out as described in (10). Briefly, mesenteric artery segments were isolated, cut into small pieces and digested with trypsin, collagenase and elastase. The resulting cell suspension was washed several times in phosphate-buffered saline and plated in Dulbecco's Modified Eagle Medium (DMEM) culture media containing 10% fetal bovine serum and 1% penicillin-streptomycin. Cell cultures were maintained at 37° C. with 5% CO2 and split at 106 cells seeding density. […]
Chain of CFTR (P26361 whole entry): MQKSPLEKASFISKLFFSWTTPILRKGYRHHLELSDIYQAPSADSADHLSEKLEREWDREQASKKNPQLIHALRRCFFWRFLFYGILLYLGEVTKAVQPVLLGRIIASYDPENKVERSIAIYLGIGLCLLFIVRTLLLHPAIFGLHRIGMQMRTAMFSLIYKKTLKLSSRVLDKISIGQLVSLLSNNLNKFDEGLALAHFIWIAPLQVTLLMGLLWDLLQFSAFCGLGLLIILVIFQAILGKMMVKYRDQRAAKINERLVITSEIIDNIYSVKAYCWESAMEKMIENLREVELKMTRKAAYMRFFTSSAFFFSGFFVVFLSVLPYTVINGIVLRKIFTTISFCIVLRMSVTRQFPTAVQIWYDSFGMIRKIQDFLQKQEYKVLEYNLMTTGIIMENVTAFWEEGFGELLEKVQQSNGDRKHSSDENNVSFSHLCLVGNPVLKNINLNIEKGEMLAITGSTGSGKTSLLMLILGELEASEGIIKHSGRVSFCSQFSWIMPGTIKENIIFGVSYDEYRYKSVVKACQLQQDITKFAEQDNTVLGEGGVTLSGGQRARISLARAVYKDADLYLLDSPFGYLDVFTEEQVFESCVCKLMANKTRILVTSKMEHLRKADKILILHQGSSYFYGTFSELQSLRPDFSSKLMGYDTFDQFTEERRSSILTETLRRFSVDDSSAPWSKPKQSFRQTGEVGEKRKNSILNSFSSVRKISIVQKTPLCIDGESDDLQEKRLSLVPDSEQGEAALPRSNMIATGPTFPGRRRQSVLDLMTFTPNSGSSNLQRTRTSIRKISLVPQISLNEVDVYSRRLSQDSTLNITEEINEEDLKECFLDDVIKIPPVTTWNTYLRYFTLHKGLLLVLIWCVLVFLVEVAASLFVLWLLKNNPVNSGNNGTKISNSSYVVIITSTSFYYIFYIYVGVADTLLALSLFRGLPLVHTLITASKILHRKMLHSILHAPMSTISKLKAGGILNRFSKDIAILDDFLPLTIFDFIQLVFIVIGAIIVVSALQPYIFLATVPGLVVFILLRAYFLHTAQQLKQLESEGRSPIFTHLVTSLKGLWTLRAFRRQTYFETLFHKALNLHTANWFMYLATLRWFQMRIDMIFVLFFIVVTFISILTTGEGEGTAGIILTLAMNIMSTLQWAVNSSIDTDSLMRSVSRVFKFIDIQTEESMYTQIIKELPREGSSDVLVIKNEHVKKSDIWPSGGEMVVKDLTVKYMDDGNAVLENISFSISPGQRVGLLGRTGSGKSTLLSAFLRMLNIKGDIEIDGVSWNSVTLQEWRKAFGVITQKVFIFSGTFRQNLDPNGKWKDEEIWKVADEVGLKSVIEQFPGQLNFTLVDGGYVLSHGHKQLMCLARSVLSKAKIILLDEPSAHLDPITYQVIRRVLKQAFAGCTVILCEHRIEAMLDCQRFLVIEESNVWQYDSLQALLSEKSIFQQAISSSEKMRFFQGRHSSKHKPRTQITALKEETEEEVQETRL
Iodide efflux measurements were conducted as previously described (18). […] Supernatant iodide levels were quantified with an iodide-selective electrode (Lazar Research Laboratories; Los Angeles, USA), calibrated with Nal standards. Pre-stimulation iodide levels were determined and then cells were stimulated with a cocktail containing 10 μmol/L forskolin, 1 mmol/L isobutylmethylxanthine and 100 μmol/L cpt-cAMP (in 1% v/v DMSO). […] Supernatant iodide levels were determined over seven consecutive 1-minute intervals post-stimulation. […] The maximum efflux rate, therefore, was calculated using the measured efflux level between 60-120 seconds post-stimulation (18).

From patent publication US20210346359A1, “Use of CFTR Modulators For Treating Cerebrovascular Conditions” (Qanatpharma AG, priority 2018, published 2021) come the findings set out here.

Entries after “also recorded” stand apart in the source; their conditions may differ.

Consider `O=C(Nc1ncc(C(c2ccccc2Cl)N2CCC(O)C2)s1)C1(c2ccc3c(c2)OCO3)CC1` (stereo not drawn) [C18, 1-(benzo[d][1,3]dioxol-5-yl)-N-(5-((2-chlorophenyl)(3-hydroxypyrrolidin-1-yl)methyl)thiazol-2-yl)cyclopropanecarboxamide], for which the “cerebral blood flow / cerebral perfusion” value with mice with heart failure is listed as “restores; also recorded: significantly improves”. For the same molecule, the “Modified Garcia score (neurological function)” value in assay [1] is given as “comparable to sham-operated mice; also recorded: restores the neurological score to the sham level”. Further, at CFTR, the “forskolin-stimulated iodide efflux after TNF” value is “fully restores; also recorded: normalization”.
